The values that follow come from PMC7710685 (Frontiers in Neuroscience, 2020).

Experiment [1] deals with T1, human α1β2γ1 GABAA receptors (Homo sapiens, UniProt P14867+P47870+Q8N1C3).
T1 sequence (Q8N1C3 36-465): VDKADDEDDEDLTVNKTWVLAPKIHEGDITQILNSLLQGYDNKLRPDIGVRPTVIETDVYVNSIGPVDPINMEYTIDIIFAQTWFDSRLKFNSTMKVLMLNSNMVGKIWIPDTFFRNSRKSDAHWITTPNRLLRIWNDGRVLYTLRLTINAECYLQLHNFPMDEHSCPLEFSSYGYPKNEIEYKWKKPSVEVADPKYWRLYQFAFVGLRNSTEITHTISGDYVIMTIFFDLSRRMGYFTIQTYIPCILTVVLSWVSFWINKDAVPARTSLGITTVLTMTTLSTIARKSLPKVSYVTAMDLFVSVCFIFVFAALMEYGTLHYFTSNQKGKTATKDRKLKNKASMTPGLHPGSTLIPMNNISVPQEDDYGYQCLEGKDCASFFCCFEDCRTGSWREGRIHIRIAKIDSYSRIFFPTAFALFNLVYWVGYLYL
T1 sequence (P47870 25-512 limits assumed): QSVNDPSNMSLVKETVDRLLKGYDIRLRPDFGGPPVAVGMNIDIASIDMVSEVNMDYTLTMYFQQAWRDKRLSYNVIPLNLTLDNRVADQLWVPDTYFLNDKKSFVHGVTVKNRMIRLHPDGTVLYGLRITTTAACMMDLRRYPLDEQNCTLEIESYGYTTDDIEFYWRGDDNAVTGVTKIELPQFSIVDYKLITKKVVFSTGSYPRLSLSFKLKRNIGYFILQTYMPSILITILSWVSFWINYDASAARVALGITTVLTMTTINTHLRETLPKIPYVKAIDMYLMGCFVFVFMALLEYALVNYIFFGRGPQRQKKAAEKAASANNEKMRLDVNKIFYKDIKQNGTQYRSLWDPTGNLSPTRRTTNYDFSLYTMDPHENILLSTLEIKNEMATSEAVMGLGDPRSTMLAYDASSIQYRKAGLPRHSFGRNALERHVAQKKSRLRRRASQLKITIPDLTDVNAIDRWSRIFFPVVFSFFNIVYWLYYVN
T1 sequence (P14867 28-456): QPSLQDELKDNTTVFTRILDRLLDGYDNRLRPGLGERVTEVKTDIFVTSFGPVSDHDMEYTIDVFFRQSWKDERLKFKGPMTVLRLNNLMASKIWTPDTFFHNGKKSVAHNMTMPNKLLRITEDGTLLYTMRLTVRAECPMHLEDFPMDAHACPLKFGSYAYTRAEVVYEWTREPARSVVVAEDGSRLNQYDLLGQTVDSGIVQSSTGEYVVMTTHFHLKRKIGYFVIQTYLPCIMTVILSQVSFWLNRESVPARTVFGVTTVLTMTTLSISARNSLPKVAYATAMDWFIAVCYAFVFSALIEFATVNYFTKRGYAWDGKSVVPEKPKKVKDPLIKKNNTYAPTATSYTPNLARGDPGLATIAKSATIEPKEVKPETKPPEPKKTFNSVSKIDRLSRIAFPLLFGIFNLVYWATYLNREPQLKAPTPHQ
As to conditions: γ1; GABA concentration-response.
From the text: (§1) To ensure homogenous receptor populations and subunit orientation, we used concatenated receptors expressed in X. laevis oocytes. Concatenated pentameric constructs were created using the subunits γx-β2-α1-β2-α1 (where x = 1, 2, or 3).
(§2) The collection and preparation of oocytes were done as previously described ([Ahring et al., 2016]). Briefly, ovarian lobes were removed from anesthetized adult X. laevis following protocol approval by the Animal Ethics Committee of The University of Sydney (AEC No. 2016/970) in accordance with the National Health and Medical Research Council of Australia code for the care and use of animals. […]
(§3) This technique was performed as previously described ([Ahring et al., 2016], [2018]; [Liao et al., 2019]). […] Sampling was taken at 200 Hz and analyzed using pClamp 10.2 suite (Molecular Devices).
(§4) Applications lasted for 30 s and were followed by 2–5 min of washout. EC50 and EC10 were calculated from this curve.
(§5) The final dataset was from a minimum of four experiments and a minimum of two different X. laevis donors. Raw traces were analyzed using pClamp 10.2. […] Peak current amplitude was quantified by measuring maximum inward current for each response. […] The Emax response and EC50 values were calculated by using non-linear regression to fit the data to the Hill equation in a monophasic model with three variables (top, bottom, EC50) using GraphPad Prism 8. […]

In experiment [2] the target is T2, human α1β2γ2 GABAA receptors (Homo sapiens, UniProt P14867+P18507+P47870). In words: GABA concentration-response, concatenated α1β2γ2 receptors in oocytes. In kind it is cell-based. The arrangement: expressed in transfected cells; host or cells: Xenopus laevis oocytes injected with cRNA of the concatenated construct. The conditions noted are these: γ2.
From the text: as §1, §2, §3, §4, §5
The target in experiment [3] is T1, human α1β2γ1 GABAA receptors. As to conditions: γ1 (α1β2γ1); for Modulation at 10 μM: 10 μM co-applied with GABA EC10, percentage potentiation of GABA EC10; for EC50: co-applied with GABA EC10; for Log(EC50): logarithm of EC50, mean ± SD; for Emax (%): percent of current through GABA EC10, Hill fit, 0.1 nM-10 μM.
From the text: (§6) To ensure homogenous receptor populations and subunit orientation, we used concatenated receptors expressed in X. laevis oocytes. Concatenated pentameric constructs were created using the subunits γx-β2-α1-β2-α1 (where x = 1, 2, or 3). […] Briefly, natural restriction sites BamHI, HindIII, and KpnI restriction sites in the γ1, 2, 3, β2, or α1 subunits were removed through silent mutations using site-directed mutagenesis. […] Inserted linker lengths are as follows γx-13a-β2-27a-α1-18a-β2-27a-α1.
(§7) The collection and preparation of oocytes were done as previously described ([Ahring et al., 2016]). […] Oocytes were prepared by slicing lobes into small pieces and defolliculated through collagenase A treatment. Stage V and VI oocytes were injected with around 50 nL of 0.5 ng/nL RNA for each concatenated construct or α1/β2 subunits in a 1:1 ratio and incubated for 3–4 days at 18°C in modified Barth’s solution (96 mM NaCl, 2.0 mM KCl, 1 mM MgCl2, 1.8 mM CaCl2, 5 mM HEPES, 2.5 mM sodium pyruvate, 0.5 mM theophylline, and 100 μg/mL gentamicin; pH 7.4).
(§8) This technique was performed as previously described ([Ahring et al., 2016], [2018]; [Liao et al., 2019]). Briefly, oocytes sit in a custom-built chamber and continuously perfused with a saline solution, ‘ND96’ (96 mM NaCl, 2 mM KCl, 1 mM MgCl2, 1.8 mM CaCl2, and 10 mM HEPES; pH 7.4). Glass electrode pipettes were filled with 3 M KCl, with resistances ranging from 0.4 to 2 MΩ. Oocytes were clamped to −60 mV using an Axon GeneClamp 500B amplifier (Molecular Devices). Currents were filtered at 20 Hz with a four-pole low pass Bessel filter (Axon GeneClamp 500 B) and digitized by a Digidata 1440A (Molecular Devices). Sampling was taken at 200 Hz and analyzed using pClamp 10.2 suite (Molecular Devices).
(§9) Each recording day, a fresh stock was used to prepare dilutions. The maximal concentration of DMSO in final drug ND96 solutions was <0.1%.
(§10) The drug modulation experiments were done as follows.
(§11) The final dataset was from a minimum of four experiments and a minimum of two different X. laevis donors. Raw traces were analyzed using pClamp 10.2. Episodic traces for each application were overlaid and the baseline was subtracted. Peak current amplitude was quantified by measuring maximum inward current for each response. Peak current amplitudes (I) were fitted to the Hill equation and normalized to the maximal fitted response (Imax). […] The Emax response and EC50 values were calculated by using non-linear regression to fit the data to the Hill equation in a monophasic model with three variables (top, bottom, EC50) using GraphPad Prism 8. Efficacy at infinitely low compound concentration was set to 0, and the slope was constrained to 1. Means are reported ± one SD.
The target in experiment [4] is T2, human α1β2γ2 GABAA receptors. As to conditions: γ2 (α1β2γ2); for Modulation at 10 μM: 10 μM co-applied with GABA EC10, percentage potentiation of GABA EC10; for Emax (%): percent of current through GABA EC10, Hill fit.
From the text: as §6, §7, §8, §9, §10, §11
In experiment [5] the target is T3, human α1β2γ3 GABAA receptors (Homo sapiens, UniProt P14867+P47870+Q99928).
T3 sequence (Q99928 18-467): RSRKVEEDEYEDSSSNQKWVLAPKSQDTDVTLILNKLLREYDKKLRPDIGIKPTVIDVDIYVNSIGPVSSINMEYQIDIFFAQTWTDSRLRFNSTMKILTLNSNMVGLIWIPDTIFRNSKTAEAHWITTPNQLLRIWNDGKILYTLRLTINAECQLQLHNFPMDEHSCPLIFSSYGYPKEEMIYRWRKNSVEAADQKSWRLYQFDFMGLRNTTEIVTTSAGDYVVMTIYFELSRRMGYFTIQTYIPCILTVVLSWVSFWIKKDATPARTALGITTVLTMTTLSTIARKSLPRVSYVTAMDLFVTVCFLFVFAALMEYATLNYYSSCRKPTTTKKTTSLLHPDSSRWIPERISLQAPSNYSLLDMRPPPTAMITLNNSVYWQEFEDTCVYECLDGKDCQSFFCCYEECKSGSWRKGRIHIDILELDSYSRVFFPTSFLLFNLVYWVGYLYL
T3 sequence (P47870 25-512 limits assumed): T1 sequence (P47870 25-512 limits assumed)
T3 sequence (P14867 28-456): T1 sequence (P14867 28-456)
As to conditions: for Modulation at 10 μM: 10 μM co-applied with GABA EC10, percentage potentiation of GABA EC10; for fold greater potency at γ3 receptors compared with γ2: EC50 α1β2γ2 vs α1β2γ3.
From the text: as §6, §7, §8, §9, §10, §11

In experiment [6] the target is T2, human α1β2γ2 GABAA receptors. In words: cell-based. As to conditions: for EC50: EC50, γ2 (α1β2γ2), co-applied with GABA EC10; for Emax: γ2 (α1β2γ2), percent of current through GABA EC10, Hill fit.
From the text: as §6, §7, §8, §9, §10, §11
For experiment [7], the target named is T3, human α1β2γ3 GABAA receptors. In words: cell-based. As to conditions: for EC50: EC50, γ3 (α1β2γ3), co-applied with GABA EC10.
From the text: as §6, §7, §8, §9, §10, §11
In experiment [8] the target is recombinant α1β2γ3 GABAA receptors. Further details: method as in Lippa et al., 2005. The conditions noted are these: ref Lippa et al., 2005, cited from earlier work.
Experiment [9] relates to γ3 GABAA receptors. As to conditions: competitive binding using Ro15-4513; ref Dämgen and Lüddens, 1999; cited from earlier work.
Experiment [10] relates to α1β2γ3 receptors. The arrangement: method as in Davies et al., 2000. As to conditions: ref Davies et al., 2000; cited from earlier work.
The test system of experiment [11] is α2β2γ3 receptor. In words: Literature: efficacy and potency of zaleplon at α2β2γ3 receptor. Type of experiment: cell-based. As to conditions: literature α2β2γ3 EC50 vs this paper's α1β2γ3 EC50.
The target of experiment [12] is T4, human binary α1β2 GABAA receptors (Homo sapiens, UniProt P14867+P47870).
T4 sequence (P14867 28-456): T1 sequence (P14867 28-456)
T4 sequence (P47870 25-512 limits assumed): T1 sequence (P47870 25-512 limits assumed)
As to conditions: 10 μM co-applied with GABA EC10, percentage potentiation of GABA EC10.
Method: as §7
This technique was performed as previously described ([Ahring et al., 2016], [2018]; [Liao et al., 2019]). Briefly, oocytes sit in a custom-built chamber and continuously perfused with a saline solution, ‘ND96’ (96 mM NaCl, 2 mM KCl, 1 mM MgCl2, 1.8 mM CaCl2, and 10 mM HEPES; pH 7.4). […] Sampling was taken at 200 Hz and analyzed using pClamp 10.2 suite (Molecular Devices). […]
as §5

Experiment [13] addresses α2β2γ3 receptor. The conditions noted are these: earlier study, no reference given; cited from earlier work.

Values joined by “and” are separate entries in the source; they are usually repeats but may differ in a detail not shown here. Equal values may be shown once. Read-outs that look alike come from different tables or passages of the source.

T2 sequence (P18507 40-475, one chain of several): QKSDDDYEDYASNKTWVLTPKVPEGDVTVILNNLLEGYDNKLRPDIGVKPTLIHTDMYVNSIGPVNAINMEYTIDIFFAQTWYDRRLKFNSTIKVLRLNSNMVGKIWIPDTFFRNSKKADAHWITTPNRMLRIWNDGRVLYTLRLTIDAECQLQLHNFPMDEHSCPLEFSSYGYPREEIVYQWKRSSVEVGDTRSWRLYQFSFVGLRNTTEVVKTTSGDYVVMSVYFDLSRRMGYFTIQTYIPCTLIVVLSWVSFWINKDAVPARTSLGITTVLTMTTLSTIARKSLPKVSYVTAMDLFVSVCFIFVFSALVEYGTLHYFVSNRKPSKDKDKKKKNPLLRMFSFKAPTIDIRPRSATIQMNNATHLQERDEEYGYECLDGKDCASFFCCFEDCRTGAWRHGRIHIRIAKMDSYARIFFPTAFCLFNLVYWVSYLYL

Regarding `NCCCC(=O)O` [GABA, γ-Aminobutyric-acid], the Hill slope in experiment [1] stood at 1.22 ± 0.32; in experiment [2], 1.19 ± 0.55.

With `CCCN(CCC)C(=O)Cc1c(-c2ccc(Cl)cc2)nc2ccc(Cl)cn12` [Alpidem, alpidem], the figures for the “Modulation at 10 μM” value in experiment [3], in experiment [4] and in [5] (γ3 (α1β2γ3)) were 40%, 542 ± 176% and 126 ± 16%, respectively. In addition, the EC50 entry in experiment [3] is “No fit”; in experiment [5] (γ3 (α1β2γ3), co-applied with GABA EC10) it was “No fit”; in experiment [6] it was 0.5 µM and 0.502 µM. The “Log(EC50)” value in [3] is on record as “No fit”; in experiment [5] (γ3 (α1β2γ3), logarithm of EC50, mean ± SD) it was “No fit”. Also, the “Emax (%)” value in experiment [3] was “No fit”; in experiment [4], 512 ± 80%; in experiment [4] (listed as alpidem) it was 475–550%; in experiment [5] (γ3 (α1β2γ3), percent of current through GABA EC10, Hill fit) it was “No fit”.

For the compound `CC(=O)N(C)c1cccc(-c2ccnc3c(C(=O)c4cccs4)cnn23)c1` [Indiplon, indiplon], the “Modulation at 10 μM” value worked out at 22 ± 7% in experiment [3], 238 ± 31% in experiment [4] and 249 ± 14% in experiment [5] (γ3 (α1β2γ3)). The EC50 result was “No fit” in experiment [3]; 0.01 µM and 0.0131 µM in experiment [6]; 0.045 µM and 0.0478 µM in experiment [7]. Further, the “Log(EC50)” value in [3] is listed as “No fit”. Moreover, the “Emax (%)” value in experiment [3] is given as “No fit”. The “fold greater potency for γ2 vs. γ3 (fold reduction in potency when γ3 replaces γ2)” value in [5] (EC50 α1β2γ3 vs α1β2γ2) is approximately 4 fold. The maximal response (Emax) came to 231 ± 18% in [6] and 263 ± 18% in experiment [7].

Take `CN1C(=O)CN=C(c2ccccc2)c2cc(Cl)ccc21` [Diazepam, diazepam]: the “Modulation at 10 μM” value is 43 ± 6% in experiment [3], 40% in experiment [3] (listed as diazepam), 272 ± 46% in experiment [4] and 156 ± 35% in experiment [5] (γ3 (α1β2γ3)). Also, the “Emax (%)” value in [3] is listed as “No fit”. Further, the EC50 in experiment [8] (recombinant α1β2γ3) was 1.95 µM. Also, in [8], the “Emax α1β2γ2 vs. α1β2γ3” value is recorded as “no reduction in Emax”. Further, the figures for the Emax in experiment [6] and in [7] were 284 ± 23% and 168 ± 24%, respectively.

Consider `CN1CCN(C(=O)OC2c3nccnc3C(=O)N2c2ccc(Cl)cn2)CC1` (centres unmarked) [zopiclone], for which, in experiment [9], the “binding affinity with γ3 compared with γ2” value is listed as “marginal reduction in binding affinity”. Also, the “efficacy and potency at α1β2γ3 compared with α1β2γ2” value in experiment [10] is “comparable efficacy and potency”.

As to `CCN(C(C)=O)c1cccc(-c2ccnc3c(C#N)cnn23)c1` [Zaleplon, zaleplon], the “fold less potency at α2β2γ3 than seen on α1β2γ3” value in [11] was 10 fold. Further, the “Modulation at 10 μM” value is reported as 126 ± 3% in [3], 125% in experiment [3] (listed as zaleplon), 305 ± 59% in experiment [4] and 262 ± 53% in experiment [5] (γ3 (α1β2γ3)). The concentration giving a half-maximal response (EC50) result in experiment [3] is “No fit”; in [13] it was approximately 0.5 µM; in [6] it was 0.203 µM; in [7] it was 0.056 µM. Besides, the “Log(EC50)” value in experiment [3] was “No fit”. For the same compound, in [3], the “Emax (%)” value is recorded as “No fit”. Moreover, the results for the “fold greater potency at γ3 receptors compared with γ2” value in [5] and in experiment [5] (listed as zaleplon) were approximately 4 fold and “four-fold increase in potency”, respectively. Also, in experiment [12], the “Modulation at 10 μM, (I-Ic)/Ic” value was 25%. Also, the “binding affinity with γ3 compared with γ2” value in experiment [9] is recorded as “eightfold higher affinity”. For the same compound, the figures for the Emax in experiment [6] and in experiment [7] were 307 ± 34% and 277 ± 26%, respectively.

As to `CN1CCN(C(=O)O[C@H]2c3nccnc3C(=O)N2c2ccc(Cl)cn2)CC1` [Eszopiclone, eszopiclone], the “Modulation at 10 μM” value in [3] is 18 ± 19%; in [3] (listed as eszopiclone), 20%; in experiment [4], 349 ± 70%; in experiment [5] (γ3 (α1β2γ3)) it was 199 ± 26%. In addition, the EC50 entry in [3] was “No fit”; in [6], 0.301 µM; in experiment [7] it was 0.554 µM. For the same compound, the “Log(EC50)” value in [3] is recorded as “No fit”. In addition, the “Emax (%)” value in experiment [3] is “No fit”. The “fold reduction in Emax when γ3 replaced γ2” value in experiment [5] (Emax α1β2γ2 vs α1β2γ3) is given as 1.5 fold. Further, the Emax worked out at 356 ± 37% in experiment [6] and 207 ± 20% in experiment [7].

In general, Hill slope refers to the slope factor of the fitted curve. As a reminder, the EC50 is the concentration needed to bring the measured effect to its halfway point. Broadly, the Emax is the size of the effect at its maximum, as opposed to the concentration needed.
